Data: patent US9242973B2, “Chromane compounds” (CoMentis, Inc., priority 2012, dated 2016)
pIC50: −log10 of the molar value. Structures can show the parent of a compound that is named as a salt. Where two headings read alike, the source gives them in different places.

Test system: Aβ production in SK-N-BE(2) neuroblastoma cells
Assay: Test Example 3: Aβ production inhibition in cell (Aβ40 ELISA, SK-N-BE(2))
Details: Homo sapiens, SKNBE2, 6 h
[1] = read-out: Test Example 3 IC50, SK-N-BE(2) cells, 6 hours, Aβ40 ELISA normalized by viability

Structure (SMILES)	pIC50 [1]	pIC50 (read-out: Test Example 3 IC50)
C[C@@H]1Oc2ccc(-c3cccnc3F)cc2[C@@]2(COC(N)=N2)C12COC2 (racemic) [RP 79]	6.35	
COc1cncc(-c2ccc3c(c2)[C@@]2(COC(N)=N2)C2(COC2)[C@@H](C)O3)c1 (racemic) [RP 81]	6.29	
CC1(C)Oc2ccc(-c3cncnc3)cc2C2(COC(N)=N2)C12COC2 (single isomer, unassigned) [RP 51b, 2′,2′-dimethyl-6′-(pyrimidin-5-yl)dispiro[1,3-oxazole-4,4′-chromene-3′,3″-oxetan]-2-amine]	7.14	
CC#Cc1cncc(-c2ccc3c(c2)C2(COC(N)=N2)C2(CC2)CO3)c1 (single isomer, unassigned) [RP 52a, 6′-[5-(prop-1-yn-1-yl)pyridin-3-yl]dispiro[cyclopropane-1,3′-chromene-4′,4″-[1,3]oxazol]-2″-amine]	7.12	
CC1(C)Oc2ccc(NC(=O)c3ccc(Cl)cn3)cc2C2(COC(N)=N2)C12COC2 (centres unmarked) [Example 27, N-(2-amino-2′,2′-dimethyldispiro[1,3-oxazole-4,4′-chromene-3′,3″-oxetan]-6′-yl)-5-chloropyridine-2-carboxamide]		8.03
CC1(C)Oc2ccc(NC(=O)c3ccc(Cl)cn3)cc2[C@@]2(COC(N)=N2)C12COC2 [Example 218, N-[(4S)-2-amino-2′,2′-dimethyldispiro[1,3-oxazole-4,4′-chromene-3′,3″-oxetan]-6′-yl]-5-chloropyridine-2-carboxamide]	9.11	
CC1(C)Oc2ccc(NC(=O)c3ccc(Br)cn3)cc2[C@@]2(COC(N)=N2)C12COC2 [Example 219]	8.66	
CC1(C)Oc2ccc(NC(=O)c3ccc(Cl)cn3)cc2[C@@]2(COC(N)=N2)C12CC2 [Example 221]	9.80	
CC1(C)Oc2ccc(NC(=O)c3ccc(F)cn3)cc2[C@@]2(COC(N)=N2)C12CC2 [Example 222]	9.21	
COc1cnc(C(=O)Nc2ccc3c(c2)[C@@]2(COC(N)=N2)C2(CC2)C(C)(C)O3)cn1 [Example 223, N-[(4′R)-2″-amino-2′,2′-dimethyldispiro[cyclopropane-1,3′-chromene-4′,4″-[1,3]oxazol]-6′-yl]-5-me thoxypyrazine-2-carboxamide]	8.51	
CC1(C)Oc2ccc(NC(=O)c3cnc(C(F)F)cn3)cc2[C@@]2(COC(N)=N2)C12CC2 [Example 224, N-[(4′R)-2″-amino-2′,2′-dimethyldispiro[cyclopropane-1,3′-chromene-4′,4″-[1,3]oxazol]-6′-yl]-5-(difluoromethyl)pyrazine-2-carboxamide]	9.20	
COCc1cnn(-c2ccc3c(c2)C2(COC(N)=N2)C2(COC2)C2(CCC2)O3)c1 (centres unmarked) [RP 4]	5.14	
NC1=NC2(CO1)c1cc(-c3cncnc3)ccc1OC1(CCC1)C21COC1 (centres unmarked) [RP 5]	6.23	
CC1(C)Oc2ccc(Br)cc2C2(COC(N)=N2)C12COC2 (centres unmarked) [RP 6, 6′-bromo-2′,2′-dimethyldispiro[1,3-oxazole-4,4′-chromene-3′,3″-oxetan]-2-amine]	5.41	
NC1=NC2(CO1)c1cc(Br)ccc1OC(CC1CC1)C21COC1 (centres unmarked) [RP 16b]	5.32	
COCC#Cc1cncc(-c2ccc3c(c2)C2(COC(N)=N2)C2(COC2)CO3)c1 (centres unmarked) [RP 19, 6′-[5-(3-methoxyprop-1-yn-1-yl)pyridin-3-yl]dispiro[1,3-oxazole-4,4′-chromene-3′,3″-oxetan]-2-amine]	6.37	
CC#Cc1cc(-c2ccc3c(c2)C2(COC(N)=N2)C2(COC2)CO3)ccn1 (centres unmarked) [RP 20]	6.24	
CC#Cc1cc(-c2ccc3c(c2)C2(COC(N)=N2)C2(COC2)CO3)ncn1 (centres unmarked) [RP 21]	6.39	
CC#Cc1cncc(-c2ccc3c(c2)C2(COC(N)=N2)C2(COC2)CO3)n1 (centres unmarked) [RP 22]	5.54	
C#Cc1cncc(-c2ccc3c(c2)C2(COC(N)=N2)C2(COC2)CO3)c1 (centres unmarked) [RP 23]	6.05	
COc1cccnc1Nc1ccc2c(c1)C1(COC(N)=N1)C1(COC1)CO2 (centres unmarked) [RP 26]	7.16	
NC1=NC2(CO1)c1cc(NC(=O)c3ccc(F)cn3)ccc1OCC21CC1 (centres unmarked) [RP 31, N-(2″-aminodispiro[cyclopropane-1,3′-chromene-4′,4″-[1,3]oxazol]-6′-yl)-5-fluoropyridine-2-carboxamide]	7.21	

Structure (SMILES)	pIC50 [1]	pIC50 (read-out: Test Example 3 IC50)
COc1ccc(F)c(-c2ccc3c(c2)C2(COC(N)=N2)C2(COC2)CO3)c1 (centres unmarked) [RP 33]	6.02	
NC1=NC2(CO1)c1cc(-c3cc(Cl)cnc3F)ccc1OCC21COC1 (centres unmarked) [RP 34]	6.59	
NC1=NC2(CO1)c1cc(-c3cncnc3)ccc1OCC21COC1 (centres unmarked) [RP 36]	6.09	
NC1=NC2(CS1)c1cc(Br)ccc1OCC21COC1 (centres unmarked) [RP 41, 6′-bromodispiro[oxetane-3,3′-chromene-4′,4″-[1,3]thiazol]-2″-amine]	< 4.52	
CC1(C)Oc2ccc(Br)cc2C2(CSC(N)=N2)C12COC2 (centres unmarked) [RP 42]	5.23	
NC1=NC2(CO1)c1cc(Nc3ncccc3Cl)ccc1OCC21COC1 (centres unmarked) [RP 43, 6′-(3-chloropyridin-2-yl)aminodispiro[1,3-oxazole-4,4′-chromene-3′,3″-oxetane]-2-amine]	5.85	
NC1=NC2(CO1)c1cc(Nc3ncccc3Cl)ccc1OC1(CCC1)C21COC1 (centres unmarked) [RP 44]	7.01	
COc1cccnc1Nc1ccc2c(c1)C1(COC(N)=N1)C1(COC1)C1(CCC1)O2 (centres unmarked) [RP 45]	7.24	
CC(C)Cc1ccc2c(c1)C1(COC(N)=N1)C1(COC1)C1(CCC1)O2 (centres unmarked) [RP 46, 6′-isobutyltrispiro[cyclobutane-1,2′-chromene-4′,4″-[1,3]oxazole-3′,3′″-oxetan]-2″-amine]	5.85	
CCC(CC)Cc1ccc2c(c1)C1(COC(N)=N1)C1(COC1)C1(CCC1)O2 (centres unmarked) [RP 47]	5.85	
NC1=NC2(CO1)c1cc(-c3cncc(C#CC4CC4)c3)ccc1OC1(CCC1)C21COC1 (centres unmarked) [RP 48, 6′-[5-(cyclopropylethynyl)pyridin-3-yl]trispiro[cyclobutane-1,2′chromene-4′,4″-[1,3]oxazole-3′,3′″-oxetan]-2″-amine]	6.16	
CC1(C)Oc2ccc(-c3cncnc3)cc2C2(CSC(N)=N2)C12COC2 (centres unmarked) [RP 54, 2′,2′-dimethyl-6′-(pyrimidin-5-yl)dispiro[oxetane-3,3′-chromene-4′,4″-[1,3]thiazol]-2″-amine hydrochloride]	7.10	
CC#Cc1ccnc(-c2ccc3c(c2)C2(COC(N)=N2)C2(COC2)CO3)c1 (centres unmarked) [RP 56]	6.13	
NC1=NC2(CO1)c1cc(-c3cncc(OCC(F)(F)F)c3)ccc1OCC21CC1 (centres unmarked) [RP 58]	6.74	
NC1=NC2(CO1)c1cc(-c3cncc(OCC(F)F)c3)ccc1OCC21CC1 (centres unmarked) [RP 59]	7.12	
NC1=NC2(CO1)c1cc(-c3cncc(OC(F)F)c3)ccc1OCC21CC1 (centres unmarked) [RP 60]	6.80	
NC1=NC2(CO1)c1cc(-c3cnc4[nH]ccc4c3)ccc1OCC21CC1 (centres unmarked) [RP 61, 6′-(1H-pyrrolo[2,3-b]pyridin-5-yl)dispiro[cyclopropane-1,3′-chromene-4′,4″-[1,3]oxazol]-2″-amine]	6.46	
CCc1cncc(-c2ccc3c(c2)C2(COC(N)=N2)C2(CC2)CO3)c1 (centres unmarked) [RP 63]	5.48	
NC1=NC2(CO1)c1cc(-c3cncc(OCC(F)(F)C(F)F)c3)ccc1OCC21CC1 (centres unmarked) [RP 64]	5.64	
COc1ccnc(-c2ccc3c(c2)C2(COC(N)=N2)C2(COC2)C(C)(C)O3)c1 (centres unmarked) [RP 65, 6′-(4-methoxypyridin-2-yl)-2′,2′-dimethyldispiro[1,3-oxazole-4,4′-chromene-3′,3″-oxetan]-2-amine]	7.31	
CC#Cc1cncc(-c2ccc3c(c2)C2(CSC(N)=N2)C2(COC2)CO3)c1 (centres unmarked) [RP 68]	6.30	
CC1(C)Oc2ccc(-c3cncnc3)cc2C2(COC(N)=N2)C12COC2 (centres unmarked) [RP 69]	7.40	

Structure (SMILES)	pIC50 [1]	pIC50 (read-out: Test Example 3 IC50)
NC1=NC2(CO1)c1cc(-c3cncc(F)c3)ccc1OC1(CCC1)C21COC1 (centres unmarked) [RP 70]	6.02	
NC1=NC2(CO1)c1cc(-c3cccnc3F)ccc1OC1(CCC1)C21COC1 (centres unmarked) [RP 71]	6.96	
COc1cncc(-c2ccc3c(c2)C2(COC(N)=N2)C2(COC2)C2(CCC2)O3)c1 (centres unmarked) [RP 72]	7.17	
NC1=NC2(CO1)c1cc(-c3cc(Cl)cnc3F)ccc1OC1(CCC1)C21COC1 (centres unmarked) [RP 73]	7.15	
Cc1cncc(-c2ccc3c(c2)C2(COC(N)=N2)C2(COC2)C2(CCC2)O3)c1 (centres unmarked) [RP 75, 6′-(5-methylpyridin-3-yl)trispiro[cyclobutane-1,2′-chromene-4′,4″-[1,3]oxazole-3′,3′″-oxetan]-2″-amine]	5.96	
CC1(C)Oc2ccc(-c3cccnc3F)cc2C2(COC(N)=N2)C12COC2 (centres unmarked) [RP 82]	7.44	
CCC1Oc2ccc(-c3cncnc3)cc2C2(COC(N)=N2)C12COC2 (centres unmarked) [RP 84]	6.39	
NC1=NC2(CO1)c1cc(-c3cncnc3)ccc1OC1(CCCC1)C21COC1 (centres unmarked) [RP 85]	7.11	
CC#Cc1cncc(-c2ccc3c(c2)C2(COC(N)=N2)C2(COC2)C(CC)O3)c1 (centres unmarked) [RP 86]	7.24	
NC1=NC2(CO1)c1cc(-c3cncnc3)ccc1OC(C1CC1)C21COC1 (centres unmarked) [RP 88]	5.85	
CCCC1Oc2ccc(-c3cncnc3)cc2C2(COC(N)=N2)C12COC2 (centres unmarked) [RP 91]	6.47	
CC#Cc1cncc(-c2ccc3c(c2)C2(COC(N)=N2)C2(COC2)C(CCC)O3)c1 (centres unmarked) [RP 92]	7.43	
CC(C)CC1Oc2ccc(-c3cncnc3)cc2C2(COC(N)=N2)C12COC2 (centres unmarked) [RP 93]	6.43	
CC#Cc1cncc(-c2ccc3c(c2)C2(COC(N)=N2)C2(COC2)C(CCC(F)(F)F)O3)c1 (centres unmarked) [RP 96]	7.66	
NC1=NC2(CO1)c1cc(-c3cncnc3)ccc1OCC21CCCO1 (centres unmarked) [RP 97]	5.59	
NC1=NC2(CO1)c1cc(-c3cncc(C(F)(F)F)c3)ccc1OC1(CCC1)C21COC1 (centres unmarked) [RP 99]	5.72	
NC1=NC2(CO1)c1cc(-c3cncnc3)ccc1OCC21CC1 (centres unmarked) [RP 100]	6.60	
NC1=NC2(CO1)c1cc(-c3cncnc3)c(F)cc1OCC21CC1 (centres unmarked) [RP 102]	6.62	
NC1=NC2(CO1)c1cc(-c3cccnc3F)ccc1OCC21CC1 (centres unmarked) [RP 103]	6.35	
COc1cncc(-c2ccc3c(c2)C2(COC(N)=N2)C2(CC2)CO3)c1 (centres unmarked) [RP 105]	6.47	
CCOc1cncc(-c2ccc3c(c2)C2(COC(N)=N2)C2(CC2)CO3)c1 (centres unmarked) [RP 106]	6.80	
